Tests used:
PIK3CA (human) [1] = biological target: PIK3CA (human) (UniProt P42336); experiment: Assessment of PIK3CA Kinase Activity
PIK3CD (Human) [2] = biological target: PIK3CD (Human) (UniProt O00329); experiment: Assessment of PIK3CD Kinase Activity in RAJI Cells
PIK3CB (Human) [3] = biological target: PIK3CB (Human) (UniProt P42338); experiment: Assessment of PIK3CB Kinase Activity
PIK3CD (Human) [4] = biological target: PIK3CD (Human) (UniProt O00329); experiment: Assessment of PIK3CD Kinase Activity
PIK3CG (human) = PIK3CG (human) (UniProt P48736); experiment: Assessment of PIK3CG Kinase Activity
Sequence of PIK3CG (human) (P48736 whole entry, looked up): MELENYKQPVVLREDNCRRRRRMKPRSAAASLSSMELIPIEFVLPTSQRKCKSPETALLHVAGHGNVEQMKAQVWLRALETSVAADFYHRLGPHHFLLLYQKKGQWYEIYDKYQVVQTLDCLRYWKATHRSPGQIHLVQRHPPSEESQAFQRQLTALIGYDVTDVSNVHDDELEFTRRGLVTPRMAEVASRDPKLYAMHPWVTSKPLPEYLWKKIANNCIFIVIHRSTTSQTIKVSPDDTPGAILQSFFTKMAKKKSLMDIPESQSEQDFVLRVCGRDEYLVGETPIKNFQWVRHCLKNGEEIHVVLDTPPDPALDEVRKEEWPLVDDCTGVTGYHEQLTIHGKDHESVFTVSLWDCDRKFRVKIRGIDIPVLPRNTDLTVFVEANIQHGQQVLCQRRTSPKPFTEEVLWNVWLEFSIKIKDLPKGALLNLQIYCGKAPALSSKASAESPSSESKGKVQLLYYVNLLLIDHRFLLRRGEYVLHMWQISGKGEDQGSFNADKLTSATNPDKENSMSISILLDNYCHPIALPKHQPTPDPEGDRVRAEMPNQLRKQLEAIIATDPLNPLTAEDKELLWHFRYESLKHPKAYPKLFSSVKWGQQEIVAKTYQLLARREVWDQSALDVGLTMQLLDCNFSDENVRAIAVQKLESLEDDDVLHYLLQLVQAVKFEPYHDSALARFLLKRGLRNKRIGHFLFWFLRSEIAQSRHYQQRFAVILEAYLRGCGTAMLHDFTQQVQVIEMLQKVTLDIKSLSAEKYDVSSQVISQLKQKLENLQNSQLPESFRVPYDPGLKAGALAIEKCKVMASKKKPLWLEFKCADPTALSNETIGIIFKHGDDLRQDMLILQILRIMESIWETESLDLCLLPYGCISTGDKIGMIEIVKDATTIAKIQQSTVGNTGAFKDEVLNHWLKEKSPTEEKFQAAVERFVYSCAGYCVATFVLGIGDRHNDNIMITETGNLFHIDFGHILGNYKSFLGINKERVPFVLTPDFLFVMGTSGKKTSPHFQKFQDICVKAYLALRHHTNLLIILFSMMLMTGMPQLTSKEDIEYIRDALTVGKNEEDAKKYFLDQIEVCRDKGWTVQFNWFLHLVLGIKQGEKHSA

PIK3CB (Human) [5] = biological target: PIK3CB (Human) (UniProt P42338); experiment: Assessment of PIK3CB Kinase Activity in 786-O Cells
PIK3CA (human) [6] = biological target: PIK3CA (human) (UniProt P42336); experiment: Assessment of PIK3CA Kinase Activity in SKOV-3 Cells

Sequence of PIK3CB (Human) (P42338 whole entry, looked up): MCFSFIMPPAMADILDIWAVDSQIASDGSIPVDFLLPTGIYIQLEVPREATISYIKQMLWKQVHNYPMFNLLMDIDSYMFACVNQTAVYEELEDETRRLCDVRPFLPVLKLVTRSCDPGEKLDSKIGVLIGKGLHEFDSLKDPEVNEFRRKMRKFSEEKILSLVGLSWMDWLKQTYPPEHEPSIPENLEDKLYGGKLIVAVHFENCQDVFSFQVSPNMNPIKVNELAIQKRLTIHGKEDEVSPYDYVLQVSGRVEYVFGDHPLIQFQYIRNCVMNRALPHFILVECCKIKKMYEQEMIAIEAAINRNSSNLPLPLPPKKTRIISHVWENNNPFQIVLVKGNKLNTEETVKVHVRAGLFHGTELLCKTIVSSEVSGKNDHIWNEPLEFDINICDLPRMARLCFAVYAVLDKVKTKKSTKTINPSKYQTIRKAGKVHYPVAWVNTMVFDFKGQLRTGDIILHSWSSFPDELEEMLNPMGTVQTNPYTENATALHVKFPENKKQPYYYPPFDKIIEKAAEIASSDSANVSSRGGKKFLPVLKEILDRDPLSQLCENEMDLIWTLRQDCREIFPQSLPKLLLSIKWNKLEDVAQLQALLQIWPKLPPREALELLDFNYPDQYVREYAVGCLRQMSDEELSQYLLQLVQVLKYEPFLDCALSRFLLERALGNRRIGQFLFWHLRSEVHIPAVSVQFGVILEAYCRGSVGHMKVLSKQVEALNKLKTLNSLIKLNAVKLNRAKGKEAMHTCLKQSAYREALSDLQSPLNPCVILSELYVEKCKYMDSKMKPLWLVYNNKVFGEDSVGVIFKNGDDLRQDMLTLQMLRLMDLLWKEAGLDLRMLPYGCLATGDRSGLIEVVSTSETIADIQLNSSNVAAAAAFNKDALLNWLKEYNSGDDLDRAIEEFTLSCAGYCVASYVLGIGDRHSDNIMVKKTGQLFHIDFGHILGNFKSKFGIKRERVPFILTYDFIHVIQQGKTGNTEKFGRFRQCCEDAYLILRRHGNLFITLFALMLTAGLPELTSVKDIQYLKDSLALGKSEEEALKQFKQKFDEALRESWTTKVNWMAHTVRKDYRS
Sequence of PIK3CD (Human) (O00329 whole entry, looked up): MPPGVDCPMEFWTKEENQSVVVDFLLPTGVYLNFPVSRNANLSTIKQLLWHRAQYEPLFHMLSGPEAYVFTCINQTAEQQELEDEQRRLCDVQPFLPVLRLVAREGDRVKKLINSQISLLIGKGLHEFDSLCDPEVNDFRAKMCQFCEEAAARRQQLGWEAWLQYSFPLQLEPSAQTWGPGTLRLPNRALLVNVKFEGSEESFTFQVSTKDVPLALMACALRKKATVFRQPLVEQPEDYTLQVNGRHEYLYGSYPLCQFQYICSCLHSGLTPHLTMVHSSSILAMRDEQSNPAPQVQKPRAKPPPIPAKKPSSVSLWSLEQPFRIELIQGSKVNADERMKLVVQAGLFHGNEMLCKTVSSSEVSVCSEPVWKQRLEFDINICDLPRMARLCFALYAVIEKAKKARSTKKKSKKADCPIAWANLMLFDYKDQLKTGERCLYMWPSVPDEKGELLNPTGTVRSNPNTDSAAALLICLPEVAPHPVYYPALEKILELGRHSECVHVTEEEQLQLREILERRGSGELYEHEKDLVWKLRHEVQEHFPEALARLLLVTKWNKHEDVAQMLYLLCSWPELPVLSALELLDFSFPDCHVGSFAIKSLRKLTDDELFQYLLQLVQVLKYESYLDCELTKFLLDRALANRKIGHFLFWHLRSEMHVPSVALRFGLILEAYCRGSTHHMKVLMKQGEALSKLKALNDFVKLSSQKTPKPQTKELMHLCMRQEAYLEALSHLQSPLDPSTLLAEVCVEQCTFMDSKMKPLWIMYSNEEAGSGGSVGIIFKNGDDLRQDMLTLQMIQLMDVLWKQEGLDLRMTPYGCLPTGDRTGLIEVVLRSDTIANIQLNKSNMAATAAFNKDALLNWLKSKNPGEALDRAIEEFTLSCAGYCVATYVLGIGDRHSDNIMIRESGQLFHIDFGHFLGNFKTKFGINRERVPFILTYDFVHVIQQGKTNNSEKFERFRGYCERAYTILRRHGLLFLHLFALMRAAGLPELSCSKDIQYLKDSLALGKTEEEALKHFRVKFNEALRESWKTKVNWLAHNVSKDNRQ
Sequence of PIK3CA (human) (P42336 whole entry, looked up): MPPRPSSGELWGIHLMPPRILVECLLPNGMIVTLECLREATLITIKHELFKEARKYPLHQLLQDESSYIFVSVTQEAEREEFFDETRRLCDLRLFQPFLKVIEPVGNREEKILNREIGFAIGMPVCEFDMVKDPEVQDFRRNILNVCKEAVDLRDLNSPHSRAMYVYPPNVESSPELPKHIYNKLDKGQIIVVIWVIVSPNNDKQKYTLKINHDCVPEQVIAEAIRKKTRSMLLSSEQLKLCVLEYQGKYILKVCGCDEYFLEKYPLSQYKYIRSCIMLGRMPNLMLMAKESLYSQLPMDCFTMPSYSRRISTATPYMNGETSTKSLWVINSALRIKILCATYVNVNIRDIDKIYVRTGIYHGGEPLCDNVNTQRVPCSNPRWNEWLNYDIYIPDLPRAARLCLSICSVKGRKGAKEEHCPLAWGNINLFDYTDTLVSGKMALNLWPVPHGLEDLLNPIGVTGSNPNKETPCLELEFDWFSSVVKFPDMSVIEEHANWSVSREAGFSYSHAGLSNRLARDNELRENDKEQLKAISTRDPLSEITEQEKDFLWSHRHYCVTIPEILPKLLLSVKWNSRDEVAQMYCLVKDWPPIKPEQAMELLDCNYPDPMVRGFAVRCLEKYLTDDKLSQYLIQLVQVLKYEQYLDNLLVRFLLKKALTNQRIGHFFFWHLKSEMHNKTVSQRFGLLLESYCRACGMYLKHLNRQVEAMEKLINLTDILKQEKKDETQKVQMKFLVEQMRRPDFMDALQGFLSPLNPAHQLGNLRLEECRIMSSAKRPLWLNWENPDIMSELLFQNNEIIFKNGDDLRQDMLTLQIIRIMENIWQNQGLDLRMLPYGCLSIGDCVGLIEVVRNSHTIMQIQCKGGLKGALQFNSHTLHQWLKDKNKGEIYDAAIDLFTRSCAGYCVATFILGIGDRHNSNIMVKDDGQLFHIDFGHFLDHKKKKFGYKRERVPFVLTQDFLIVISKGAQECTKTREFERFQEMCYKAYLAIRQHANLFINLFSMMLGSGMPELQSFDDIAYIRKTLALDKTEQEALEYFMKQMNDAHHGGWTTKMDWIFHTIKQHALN

SMILES | IC50 (PIK3CA (human) [1]) | IC50 (PIK3CD (Human) [2]) | IC50 (PIK3CB (Human) [3]) | IC50 (PIK3CD (Human) [4]) | IC50 (PIK3CG (human)) | IC50 (PIK3CB (Human) [5]) | IC50 (PIK3CA (human) [6])
CC(C)n1c([C@H](C)Nc2ncnc(N)c2C#N)cc2cccc(-c3ccc(=O)n(C)c3)c2c1=O |  | < 100 nM |  | < 100 nM | 100 to 1000 nM | 100 to 1000 nM | 
Cc1ncc(-c2cccc3cc([C@H](C)Nc4nc(N)ncc4C#N)n(-c4ccon4)c(=O)c23)cn1 | > 10000 nM | < 100 nM | > 10000 nM | < 100 nM |  |  | 
COc1nc(-c2cnc(N)nc2N[C@@H](C)c2cc3cccc(-c4ccc(=O)n(C)c4)c3c(=O)n2-c2ccccc2)cs1 | > 10000 nM | < 100 nM | > 10000 nM | < 100 nM | < 100 nM | > 10000 nM | > 10000 nM
C[C@H](Nc1nc(N)ncc1-c1cn[nH]c1)c1cc2cccc(Cl)c2c(=O)n1-c1ccccc1 | > 10000 nM | < 100 nM | > 10000 nM | 100 to 1000 nM | < 100 nM |  | 
CC(C)C(=O)c1cnc(N)nc1N[C@@H](C)c1cc2cccc(Cl)c2c(=O)n1-c1ccccc1 |  | < 100 nM | > 10000 nM | 100 to 1000 nM | 100 to 1000 nM |  | 
CCOc1nc(-c2cnc(N)nc2N[C@@H](C)c2cc3cccc(-c4ccc(=O)n(C)c4)c3c(=O)n2-c2ccccc2)cs1 |  | < 100 nM |  | < 100 nM | < 100 nM |  | 100 to 1000 nM
CC(C)OC(=O)c1cccc(-n2c([C@H](C)Nc3nc(N)ncc3C#N)cc3cccc(Cl)c3c2=O)c1 | > 10000 nM | < 100 nM | > 10000 nM | 100 to 1000 nM | 100 to 1000 nM |  | 
COc1ncc(-c2cccc3cc([C@H](C)Nc4nc(N)ncc4C#N)n(C(C)C)c(=O)c23)cn1 |  | < 100 nM | > 10000 nM | < 100 nM | 100 to 1000 nM |  | 
COc1ccc(-c2cnc(N)nc2N[C@@H](C)c2cc3cccc(Cl)c3c(=O)n2-c2ccccc2)cn1 |  | < 100 nM | > 10000 nM | 100 to 1000 nM | < 100 nM |  | 
C[C@H](Nc1nc(N)ncc1C#N)c1cc2cccc(Cl)c2c(C(=O)NC2CCOCC2)n1 | > 10000 nM | < 100 nM | > 10000 nM |  | > 10000 nM |  | > 10000 nM
C=CS(=O)(=O)Nc1cccc(-c2cnc(N)nc2N[C@@H](C)c2cc3cccc(Cl)c3c(=O)n2-c2ccccc2)c1 | 100 to 1000 nM | < 100 nM | 100 to 1000 nM | < 100 nM | < 100 nM |  | 
COc1ncc(-c2cccc3cc([C@H](C)Nc4ncnc(N)c4C#N)n(-c4ccccc4)c(=O)c23)cn1 | > 10000 nM | < 100 nM | > 10000 nM | < 100 nM | 100 to 1000 nM |  | 
CC(C)n1c([C@H](C)Nc2nc(N)ncc2C#N)cc2cccc(-c3ccc(=O)n(C)c3)c2c1=O |  | < 100 nM |  | < 100 nM | 100 to 1000 nM | 100 to 1000 nM | 

More lines, now with the values ahead:

IC50 (PIK3CA (human) [1]) | IC50 (PIK3CD (Human) [2]) | IC50 (PIK3CB (Human) [3]) | IC50 (PIK3CD (Human) [4]) | IC50 (PIK3CG (human)) | IC50 (PIK3CB (Human) [5]) | IC50 (PIK3CA (human) [6]) | SMILES
> 10000 nM | < 100 nM | > 10000 nM | 100 to 1000 nM |  |  |  | C[C@H](Nc1ncnc(N)c1C#N)c1cc2cccc(Cl)c2c(C(=O)NC2CCOCC2)n1
100 to 1000 nM | < 100 nM | 100 to 1000 nM | 100 to 1000 nM | < 100 nM |  |  | C[C@H](Nc1nc(N)ncc1-c1cccc(S(=O)(=O)N2CCCCC2)c1)c1cc2cccc(Cl)c2c(=O)n1-c1ccccc1
100 to 1000 nM | < 100 nM | 100 to 1000 nM | < 100 nM | < 100 nM |  |  | C[C@H](Nc1nc(N)ncc1-c1cccc(S(=O)(=O)N(C)C)c1)c1cc2cccc(Cl)c2c(=O)n1-c1ccccc1
> 10000 nM | < 100 nM | > 10000 nM | < 100 nM | < 100 nM |  |  | C[C@H](Nc1nc(N)ncc1-c1cncs1)c1cc2cccc(-c3ccc(=O)n(C)c3)c2c(=O)n1-c1ccccc1
> 10000 nM | < 100 nM | > 10000 nM | 100 to 1000 nM |  |  |  | COc1ncc(-c2cccc3cc([C@H](C)Nc4nc(N)ncc4C#N)n(-c4ccon4)c(=O)c23)cn1
> 10000 nM | < 100 nM | > 10000 nM | < 100 nM | 100 to 1000 nM |  |  | COc1cc(-c2cccc3cc(CNc4nc(N)ncc4C#N)n(-c4ccccc4)c(=O)c23)ccn1
100 to 1000 nM | < 100 nM | < 100 nM | < 100 nM | < 100 nM |  |  | CC(=O)c1cnc(N)nc1N[C@@H](C)c1cc2cccc(Cl)c2c(=O)n1-c1ccccc1
> 10000 nM | < 100 nM | 100 to 1000 nM | < 100 nM | < 100 nM |  |  | C[C@H](Nc1nc(N)ncc1-c1cccc(NS(=O)(=O)N(C)C)c1)c1cc2cccc(Cl)c2c(=O)n1-c1ccccc1
> 10000 nM | < 100 nM | > 10000 nM | 100 to 1000 nM | 100 to 1000 nM |  |  | C[C@H](Nc1ncnc(N)c1C#N)c1cc2cccc(Cl)c2c(=O)n1-c1ccon1
> 10000 nM | < 100 nM | 100 to 1000 nM | < 100 nM | < 100 nM |  |  | C[C@H](Nc1nc(N)ncc1-c1cccc(S(=O)(=O)N2CCCC2)c1)c1cc2cccc(Cl)c2c(=O)n1-c1ccccc1
> 10000 nM | < 100 nM | > 10000 nM | 100 to 1000 nM | < 100 nM |  |  | C[C@H](Nc1nc(N)ncc1-c1ccoc1)c1cc2cccc(Cl)c2c(=O)n1-c1ccccc1
> 10000 nM | < 100 nM | > 10000 nM | 100 to 1000 nM | > 10000 nM |  |  | Cc1ncc(-c2cccc3cc([C@H](C)Nc4ncnc(N)c4C#N)n(-c4ccon4)c(=O)c23)cn1
> 10000 nM | < 100 nM | > 10000 nM | 100 to 1000 nM | < 100 nM |  |  | C[C@H](Nc1nc(N)ncc1C#N)c1cc2cccc(Cl)c2c(=O)n1-c1cc(F)cc(F)c1
 | < 100 nM | > 10000 nM | < 100 nM | < 100 nM | > 10000 nM |  | COc1ncc(-c2cccc3cc([C@H](C)Nc4nc(N)ncc4C#N)n(-c4ccccc4)c(=O)c23)cn1
> 10000 nM | < 100 nM | > 10000 nM | < 100 nM | < 100 nM |  |  | C[C@H](Nc1nc(N)ncc1-c1cscn1)c1cc2cccc(-c3ccc(=O)n(C)c3)c2c(=O)n1-c1ccccc1
> 10000 nM | < 100 nM | > 10000 nM | < 100 nM |  |  | 100 to 1000 nM | Cc1ncc(-c2cccc3cc([C@H](C)Nc4nc(N)ncc4C#N)n(C(C)C)c(=O)c23)cn1

— the Kinase Knowledgebase extract (Sharma et al. 2016)
